Reference: patent publication US20240101552A1, “CARBONYL HETEROCYCLIC COMPOUND AND APPLICATION THEREOF” (SHANGHAI PHARMACEUTICALS HOLDING CO., LTD., priority 2020, published 2024)

Legend:
LANCL2 = LANCL2 (Homo sapiens (Human), UniProt Q9NS86); assay: SPR (BIACORE S200) kinetic determination of LANCL2-small molecule interactions; assay type: binding; conditions: for Kd: immobilized LANCL2, 1:1 binding model, pH 6.5, 25° C.; for Rmax (RU): maximum binding force
Experimental: 1.1 Reagent Materials • Ligand: LANCL2 • Running buffer: 20 mM MES, 150 mM NaCl, 0.05% P20, pH 6.5, 1% DMSO
Injection conditions for small molecule compounds: a flow rate of 30 μL/min, a binding time of 60 s, a dissociation time of 300 s.
Running buffer: 20 mM MES, 150 mM NaCl, 0.05% P20, pH 6.5, 1% DMSO.
Sample chamber temperature: 25° C.; analysis temperature: 25° C.
Kinetic determination of LANCL2-small molecule interactions was performed. The kinetic parameters of small molecules BT-11 and L-1 to 60 (analytes) binding to LANCL2 (ligand) were determined using BIACORE S200. Data were generated in triplicate in a dose-dependent manner (5-8 titration points) and analyzed to determine binding models (Langmuir, conformational shifts, etc.), real-time association and dissociation constants, and equilibrium dissociation constants. SPR technology allows the validation of specific LANCL2-phytochemical interactions as well as an increased insight into the gold standard of binding mechanisms and rates. Experiments were performed on carboxymethyl polydextrose (CM5) sensor chips by amine-coupled covalent attachment of LANCL2. Data were analyzed with BIACORE S200T200 evaluation software (version 1), so as to determine affinity binding constants (KD) using a 1:1 binding model.
An optical technique for detecting molecular interactions, SPR, was used to measure the binding affinity between LANCL2 and a ligand thereof (compound to be tested). Purified recombinant LANCL2 protein was immobilized on a BIACORE sensor chip and small molecules were injected onto the protein surface using an equipment of microfluidic system. The change in total mass on the chip surface, corresponding to a small binding to the protein, was measured. […] The equilibrium dissociation constant (Kd) was often used to describe the affinity between a ligand and a protein, such as affinity degree of a ligand binding to a specific protein. Ligand-protein affinity was affected by non-covalent intermolecular interactions between two molecules, such as hydrogen bonding, electrostatic interactions, hydrophobic bonds and van der Waals forces. The steady-state affinity (Kd) for each interaction could be measured by plotting equilibrium binding levels against compound concentrations.

[1] = test system: TNBS-induced colitis in mice; assay: Alleviating effect on TNBS-induced colitis in mice, study (II); assay type: in vivo, Balb/c mice; conditions: vs Vehicle group; PO, 50 mpk, BID
Experimental: Sixty female Balb/c mice, weighing about 18 g and 8-10 weeks old, were randomly divided into twelve groups, including eleven model groups and one Sham control group. The administration was started on Day 1 and ended on Day 7, with the compounds prepared once a day, as detailed in Table 1 for route and frequency of administration, and Table 2 for compound preparation and volume of administration.
Balb/c mice weighing about 18-20 g were anesthetized with 0.25 mL of 1.25% Avertin on Day 0. The mice in the model group were perfused rectally with 150 μL of 1% TNBS solution (ethanol with a final concentration of 50%). The mice in the Sham control group were perfused rectally with 50% ethanol on Day 0.
The mouse colon was photographed, measured for the length, and weighed after the contents were removed. The colon of each mouse was then cut longitudinally at ½, rolled in a uniform direction by Swiss-roll method and fixed in neutral paraformaldehyde.
The DAI scoring consisted of 3 parts, taking the method of mixed scoring of weight change, stool and blood in stool, and the specific DAI scoring criteria were shown in Table 3. Throughout the experiment, the DAI scoring of all mice was done by the same person to ensure the scale consistency of the scoring.
The experimental data were statistically analyzed by ANOVA method, and data of other groups and the Vehicle (PO, QD) group were analyzed by Dunnett's test to compare data of multiple groups, *p<0.05, **p<0.01, ***p<0.005, ****p<0.0001

LANCL2, sequence (Q9NS86 whole entry, species assumed): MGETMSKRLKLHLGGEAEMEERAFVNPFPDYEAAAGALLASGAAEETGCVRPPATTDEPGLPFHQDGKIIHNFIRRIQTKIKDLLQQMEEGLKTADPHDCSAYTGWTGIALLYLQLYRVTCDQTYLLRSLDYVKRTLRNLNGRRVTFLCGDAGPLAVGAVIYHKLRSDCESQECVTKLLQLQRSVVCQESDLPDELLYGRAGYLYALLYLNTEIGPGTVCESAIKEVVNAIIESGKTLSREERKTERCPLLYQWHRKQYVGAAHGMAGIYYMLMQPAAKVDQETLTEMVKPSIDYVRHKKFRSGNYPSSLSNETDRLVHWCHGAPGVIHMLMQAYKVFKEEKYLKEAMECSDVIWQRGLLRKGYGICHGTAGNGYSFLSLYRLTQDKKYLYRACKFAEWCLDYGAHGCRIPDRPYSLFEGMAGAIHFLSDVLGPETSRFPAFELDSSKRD

Structure (SMILES) | Kd (LANCL2) [µM] | Rmax (RU) (LANCL2) | weight loss of the mice (FIG. 16A) [1]
O=C(c1cccc(-c2nc3ccccc3[nH]2)n1)N1CCN(C(=O)c2cccc(-c3nc4ccccc4[nH]3)n2)CC1 [BT-11, reference compound] | 4.46 | 3.6 | not significantly slowed down
O=C1CCC(C(=O)N2CC3CN(C(=O)c4cccc(-c5nc6ccccc6[nH]5)n4)CC3C2)=NN1 [Embodiment L-121, 6-(5-(6-(1Hbenzo[d]imidazol-2-yl)picolinoyl)octahydropyrrolo[3,4-c]pyrrole-2-carbonyl)-4,5-dihydropyridazin-3(2H)-one] | 20.8 | 2.3 | 
O=C(c1cnc2ccccc2c1)N1CC2CN(C(=O)c3cccc(-c4nc5ccccc5[nH]4)n3)CC2C1 [Embodiment L-122, (5-(6-(1Hbenzo[d]imidazol-2-yl)picolinoyl)hexahydropyrrolo[3,4-c]pyrrol-2(1H)-yl)(quinolin-3-yl)methanone] | 10.3 | 7 | 
Cc1ccncc1C(=O)N1CC2CN(C(=O)c3cccc(-c4nc5ccccc5[nH]4)n3)CC2C1 [Embodiment L-123, (5-(6-(1Hbenzo[d]imidazol-2-yl)picolinoyl)hexahydropyrrolo[3,4-c]pyrrol-2(1H)-yl)(4-methylpyridin-3-yl)methanone] | 18.3 | 3.9 | 
O=C(c1ccc(F)c(Cl)c1)N1CC2CN(C(=O)c3cccc(-c4nc5ccccc5[nH]4)n3)CC2C1 [Embodiment L-124, (5-(6-(1Hbenzo[d]imidazol-2-yl)picolinoyl)hexahydropyrrolo[3,4-c]pyrrol-2(1H)-yl)(3-chloro-4-fluorophenyl)methanone] | 8.79 | 4.8 | 

More lines, main results first:

Kd (LANCL2) [µM] | Rmax (RU) (LANCL2) | Structure (SMILES) | weight loss of the mice (FIG. 16A) [1]
23.5 | 5.2 | Cc1ccc2cc(C(=O)N3CC4CN(C(=O)c5cccc(-c6nc7ccccc7[nH]6)n5)CC4C3)ccc2n1 [Embodiment L-125, (5-(6-(1Hbenzo[d]imidazol-2-yl)picolinoyl)hexahydropyrrolo[3,4-c]pyrrol-2(1H)-yl)(2-methylquinolin-6-yl)methanone] | 
40.5 | 3.3 | O=C(c1cccc(-c2nc3ccccc3[nH]2)n1)N1CC2CN(C(=O)C3CCC(c4ccc(Cl)cc4)CC3)CC2C1 [Embodiment L-126, (5-(6-(1Hbenzo[d]imidazol-2-yl)picolinoyl)hexahydropyrrolo[3,4-c]pyrrol-2(1H)-yl)(4-(4-chlorophenyl)cyclohexyl)methanone] | 
9.38 | 5.1 | O=C(c1ccc(-c2ccccc2)cc1)N1CC2CN(C(=O)c3cccc(-c4nc5ccccc5[nH]4)n3)CC2C1 [Embodiment L-127, (5-(6-(1Hbenzo[d]imidazol-2-yl)picolinoyl)hexahydropyrrolo[3,4-c]pyrrol-2(1H)-yl)([1,1′-biphenyl]-4-yl)methanone] | 
